Assay results as given in ChEMBL document CHEMBL6078673, “Synthesis and anti-tumor activity of menthylamine derivatives: Focusing on the potent inhibitory effect of compound W8 on glioma growth” (Bioorg Med Chem, 2025).
pIC50: −log10 of the molar value. Converted amounts (≈) assume the structure as drawn. The source made the active and inactive calls. No cut-off for these calls is given here.

Key:
[1] = tested on: U-87 MG; assay: Antiproliferative activity against human U87 cells assessed as inhibition of cell growth incubated for 24 hrs by CCK-8 assay; assay type: functional, cell-based, U-87MG ATCC
[2] = tested on: MCF7; assay: Antiproliferative activity against human MCF7 cells assessed as inhibition of cell growth incubated for 24 hrs by CCK-8 assay; assay type: functional, cell-based; settings: MCF7, 24 h
[3] = tested on: HCT-116; assay: Antiproliferative activity against human HCT-116 cells assessed as inhibition of cell growth incubated for 24 hrs by CCK-8 assay; assay type: functional, cell-based; settings: HCT-116, 24 h
[4] = tested on: KYSE-150 cell line; assay: Antiproliferative activity against human KYSE-150 cell line assessed as inhibition of cell growth incubated for 24 hrs by CCK-8 assay; assay type: functional, cell-based; settings: KYSE-150, 24 h
[5] = Kinetic solubility in PBS at pH 7.4 incubated under shaking condition for 24 hrs by LC-MS/MS analysis; assay type: physicochemical; settings: read-out: Kinetic_solubility
[6] = Apparent permeability across apical to basolateral side in human Caco-2 cells at 2 uM incubated for 2 hrs by LC-MS/MS analysis; assay type: ADME, cell-based; settings: for Papp A→B at 2 h, 2 µM: Caco-2; for Papp: caco-2, 2 h, 2 µM
[7] = Apparent permeability across basolateral to apical side in human Caco-2 cells at 2 uM incubated for 2 hrs by LC-MS/MS analysis; assay type: ADME, cell-based; settings: for Papp B→A at 2 h, 2 µM: Caco-2; for Papp: caco-2, 2 h, 2 µM
[8] = Efflux ratio of apparent permeability from basolateral to apical side over apical to basolateral side in human Caco-2 cells at 2 uM incubated for 2 hr by LC-MS/MS analysis; assay type: ADME, cell-based; settings: for efflux ratio at 2 h, 2 µM: Caco-2; for Ratio: caco-2, 2 h, 2 µM
[9] = Metabolic stability in liver microsomes (unknown origin) assessed as half life incubated for 60 mins by LC-MS/MS analysis; assay type: ADME, Microsome
[10] = Metabolic stability in liver microsomes (unknown origin) assessed as compound remaining incubated for 60 mins by LC-MS/MS analysis; assay type: ADME, Microsome; settings: read-out: Stability
[11] = tested on: U-87 MG; assay: Induction of apoptosis in human U87 cells at 80 uM incubated for 24 hrs by Annexin V-FITC/PI staining based flow cytometry; assay type: functional
[12] = tested on: U-87 MG; assay: Induction of apoptosis in human U87 cells assessed as increase in number of apoptotic cells at 80 uM incubated for 24 hrs by Annexin V-FITC/PI staining based flow cytometry; assay type: functional, cell-based; settings: U-87MG ATCC
[13] = tested on: U-87 MG; assay: Induction of cell cycle arrest in human U87 cells assessed as increase in number of cells at G1 phase at 80 uM incubated for 24 hrs by RNase/PI staining based flow cytometry; assay type: functional; settings: U-87MG ATCC
[14] = tested on: U-87 MG; assay: Induction of cell cycle arrest in human U87 cells assessed as increase in number of cells at G2 phase at 80 uM incubated for 24 hrs by RNase/PI staining based flow cytometry; assay type: functional; settings: U-87MG ATCC
[15] = tested on: U-87 MG; assay: Induction of cell cycle arrest in human U87 cells assessed as decrease in number of cells at S phase at 80 uM incubated for 24 hrs by RNase/PI staining based flow cytometry; assay type: functional; settings: U-87MG ATCC
[16] = tested on: U-87 MG; assay: Inhibition of cell migration in human U87 cells at 80 uM incubated for 48 hrs by scratch assay; assay type: functional, cell-based; settings: U-87MG ATCC
[17] = tested on: U-87 MG; assay: Induction of cell cycle arrest in human U87 cells assessed as decrease in number of cells at G1 phase at 80 uM incubated for 24 hrs by RNase/PI staining based flow cytometry; assay type: functional; settings: U-87MG ATCC
[18] = tested on: U-87 MG; assay: Induction of cell cycle arrest in human U87 cells assessed as decrease in number of cells at G2 phase at 80 uM incubated for 24 hrs by RNase/PI staining based flow cytometry; assay type: functional; settings: U-87MG ATCC
[19] = tested on: U-87 MG; assay: Induction of cell cycle arrest in human U87 cells assessed as increase in number of cells at S phase at 80 uM incubated for 24 hrs by RNase/PI staining based flow cytometry; assay type: functional; settings: U-87MG ATCC

For `CC(C)[C@H]1CC[C@H](C)C[C@H]1N1C(=O)c2ccccc2C1=O`, the pIC50 [1] was 4.18, the pIC50 [2] was 2.83 and the pIC50 [3] was 4.24. The pIC50 [4] was under 3.01, the solubility kinetic at 24 h [5] was 0.03 µM (≈ 0.00856 µg/mL) and the Papp A→B at 2 h, 2 µM [6] was 25.7 ×10⁻⁶ cm/s. It also gave a Papp B→A at 2 h, 2 µM [7] of 12.6 ×10⁻⁶ cm/s, an efflux ratio at 2 h, 2 µM [8] of 0.52 and a half-life [9] of over 145 min. The remaining at 1 h [10] was 80.4%, the Activity ([11]; U-87MG ATCC) was “Active” and the Activity [12] was “Active; Significantly Increased Activity Observed”. The Activity [13] was “Active”, the Activity [14] was “Active” and the Activity [15] was “Active”. For the same compound, the inhibition [16] was “Active”.
Compound `CC(C)[C@@H]1CC[C@@H](C)C[C@H]1OC(=O)c1ccc([N+](=O)[O-])cc1` has a pIC50 [1] of 4.03, a pIC50 [2] of 3.04 and a pIC50 [3] of 3.19. The pIC50 [4] was under 2.50, the solubility kinetic at 24 h [5] was 0.61 µM (≈ 0.186 µg/mL) and the Papp A→B at 2 h, 2 µM [6] was 24 ×10⁻⁶ cm/s. The Papp B→A at 2 h, 2 µM [7] was 11.2 ×10⁻⁶ cm/s, the efflux ratio at 2 h, 2 µM [8] was 0.48 and the half-life [9] was 25.2 min. The remaining at 1 h [10] was 32.6%, the Activity ([11]; U-87MG ATCC) was “Active” and the Activity [12] was “Active; Significantly Increased Activity Observed”. The Activity [17] was “inactive”, the Activity [18] was “inactive” and the Activity [19] was “inactive”. For the same compound, the inhibition [16] was “Active”.
With `COCCc1ccc(OCC(O)CNC(C)C)cc1` (centres undefined) [METOPROLOL] the Papp A→B at 2 h, 2 µM [6] was 25.1 ×10⁻⁶ cm/s.
In the case of `CC(C)[C@H]1CC[C@@H](C)C[C@H]1N`, the pIC50 [1] was 3.65, the pIC50 [2] was 2.45 and the pIC50 [3] was 3.07. It also gave a pIC50 [4] of 2.37, a solubility kinetic at 24 h [5] of 147 µM (≈ 22.8 µg/mL) and a Papp A→B at 2 h, 2 µM [6] of 41.8 ×10⁻⁶ cm/s. The Papp B→A at 2 h, 2 µM [7] was 24.7 ×10⁻⁶ cm/s, the efflux ratio at 2 h, 2 µM [8] was 0.59 and the half-life [9] was over 145 min. The remaining at 1 h [10] was 79.4%, the Activity [11] was 90% and the Activity [12] was “Active; Significantly Increased Activity Observed”. For the same compound, the Activity [17] was “Active”, the Activity [18] was “Active” and the Activity [19] was “Active”. The inhibition [16] was “Active”.
In the case of `C[C@]12CC[C@H]3[C@@H](CCC4=CC(=O)CC[C@@]43C)[C@@H]1CC[C@@H]2O` [TESTOSTERONE], the remaining at 1 h [10] was 91%.
For `CC(C)[C@@H]1CC[C@@H](C)C[C@@H]1OC(=O)c1ccc([N+](=O)[O-])cc1`, the pIC50 [1] was 3.96, the pIC50 [2] was 2.57 and the pIC50 [3] was 3.10. For the same compound, the pIC50 [4] was 2.45, the solubility kinetic at 24 h [5] was 0.031 µM (≈ 0.00947 µg/mL) and the Papp A→B at 2 h, 2 µM [6] was 24.4 ×10⁻⁶ cm/s. For the same compound, the Papp B→A at 2 h, 2 µM [7] was 12.1 ×10⁻⁶ cm/s, the efflux ratio at 2 h, 2 µM [8] was 0.51 and the half-life [9] was 25 min. The remaining at 1 h [10] was 33.3%, the Activity ([11]; U-87MG ATCC) was “Active” and the Activity [12] was “Active; Significantly Increased Activity Observed”. The Activity [17] was “inactive”, the Activity [18] was “inactive” and the Activity [19] was “inactive”. For the same compound, the inhibition [16] was “Active”.
In the case of `C[C@H]1O[C@@H](O[C@H]2[C@@H](O)C[C@H](O[C@H]3[C@@H](O)C[C@H](O[C@H]4CC[C@@]5(C)[C@H](CC[C@@H]6[C@@H]5C[C@@H](O)[C@]5(C)[C@@H](C7=CC(=O)OC7)CC[C@]65O)C4)O[C@@H]3C)O[C@@H]2C)C[C@H](O)[C@@H]1O` [DIGOXIN], the Papp A→B at 2 h, 2 µM [6] was 0.15 ×10⁻⁶ cm/s, the Papp B→A at 2 h, 2 µM [7] was 18.6 ×10⁻⁶ cm/s and the efflux ratio at 2 h, 2 µM [8] was 127.
For `CC(C)[C@H]1CC[C@@H](C)C[C@@H]1N`, the pIC50 [1] was 2.76, the pIC50 [2] was under 2.19 and the pIC50 [3] was under 3.50. For the same compound, the pIC50 [4] was under 2.19, the solubility kinetic at 24 h [5] was 150 µM (≈ 23.3 µg/mL) and the Papp [6] was 40.16 10^-6 cm/s. The Papp [7] was 23.22 10^-6 cm/s, the Ratio [8] was 0.5 and the half-life [9] was over 145 min. The remaining at 1 h [10] was 75.4%, the Activity ([11]; U-87MG ATCC) was “Active” and the Activity [12] was “Active; Significantly Increased Activity Observed”. For the same compound, the Activity [13] was “Active”, the Activity [14] was “Active” and the Activity [15] was “Active”. For the same compound, the inhibition [16] was “Active”.
In the case of `O=C(O)Cc1ccccc1Nc1c(Cl)cccc1Cl` [DICLOFENAC], the half-life [9] was 5.32 min and the remaining at 1 h [10] was 97.8%.
`CC(C)[C@H]1CC[C@H](C)C[C@@H]1N` gave a pIC50 [1] of 2.49, a pIC50 [2] of 2.19 and a pIC50 [3] of 2.19. The pIC50 [4] was 2.19, the solubility kinetic at 24 h [5] was 146 µM (≈ 22.6 µg/mL) and the Papp A→B at 2 h, 2 µM [6] was 46 ×10⁻⁶ cm/s. For the same compound, the Papp B→A at 2 h, 2 µM [7] was 23.5 ×10⁻⁶ cm/s, the efflux ratio at 2 h, 2 µM [8] was 0.53 and the half-life [9] was over 145 min. For the same compound, the remaining at 1 h [10] was 79.4%, the Activity [11] was 90% and the Activity [12] was “Active; Significantly Increased Activity Observed”. The Activity [17] was “inactive”, the Activity [18] was “inactive” and the Activity [19] was “inactive”. The inhibition [16] was “Active”.
With `CC(C)[C@H]1CC[C@H](C)C[C@H]1N` the pIC50 [1] was 3.50, the pIC50 [2] was under 2.90 and the pIC50 [3] was 3.20. The pIC50 [4] was under 2.48, the solubility kinetic at 24 h [5] was 0.625 µM (≈ 0.0971 µg/mL) and the Papp [6] was 23.47 10^-6 cm/s. The Papp [7] was 22.23 10^-6 cm/s, the Ratio [8] was 0.55 and the half-life [9] was over 145 min. The remaining at 1 h [10] was 81.8%, the Activity ([11]; U-87MG ATCC) was “Active” and the Activity [12] was “Active; Significantly Increased Activity Observed”. For the same compound, the Activity [13] was “Active”, the Activity [14] was “Active” and the Activity [15] was “Active”. The inhibition [16] was “Active”.
For `CC(C)[C@H]1CC[C@H](C)C[C@@H]1O` [RACEMENTHOL], the pIC50 [1] was 3.17, the pIC50 [2] was 2.43 and the pIC50 [3] was 2.94. The pIC50 [4] was 2.44, the Activity [12] was “inactive” and the Activity [17] was “inactive”. The Activity [18] was “inactive”, the Activity [19] was “inactive” and the inhibition [16] was “Active”.
For `CC(C)(C)NCC(O)COc1cccc2c1CC(O)C(O)C2` (centres undefined) [NADOLOL], the Papp A→B at 2 h, 2 µM [6] was 0.04 ×10⁻⁶ cm/s.
Work on `Cn1nnc2c(C(N)=O)ncn2c1=O` [TEMOZOLOMIDE] yielded a pIC50 [1] of 2.82.
With `CC(C)[C@@H]1CC[C@@H](C)C[C@H]1O` [LEVOMENTHOL] the pIC50 [1] was 3.70, the pIC50 [2] was 2.90 and the pIC50 [3] was 3.11. For the same compound, the pIC50 [4] was 3.11, the Activity [12] was “inactive” and the Activity [17] was “inactive”. For the same compound, the Activity [18] was “inactive”, the Activity [19] was “inactive” and the inhibition [16] was “Active”.
